Patent EP4545076A1, “LAT1 SELECTIVE INHIBITORS FOR USE IN THE TREATMENT OF ADVERSE VENTRICULAR -REMODELLING AND OF HEART FAILURE” (Fundació Hospital Universitari Vall d'Hebron - Institut de …, priority 2023, dated 2025)

Key:
Assay type in all cases: in vivo, C57BL/6N mice
[1] = tested on: genes involved in BCAA catabolism; assay: BCAA catabolism gene expression (microarray, RT-PCR) in hearts of TAC mice; details: 12.5 mg/kg/day ip
Method: (§1) Twelve weeks C57BL/6N old mice were anesthetised with ketamine/xylazine (100 mg/kg and 10 mg/kg, respectively) and mechanically ventilated (SAR-830/AP, CWE). The transverse aortic arch was ligated by tying a 6-0 silk suture around the aorta and a 27G needle to yield a partial and reproducible constriction when the needle was removed. In sham animals, the aortic arch was visualized but not banded. Thorax was closed and analgesia was administrated (buprenorphine at 0.1 mg/kg every 12 hours until 48 hours). Mice were euthanized by lethal intraperitoneal dose of sodium pentobarbital (100 mg/kg) (Cat. No. 4579, Tocris).
(§2) The LAT1 inhibitor JPH203 (Cat. No. S8667) was intraperitoneally (ip) and chronically administered, starting the following day after TAC surgery.
(§3) Mice were randomly distributed to receive JPH203 at 12.5 mg/kg/day (prepared at 2 mg/ml of 40% 2-hydroxipropil-beta-cyclodextrin in saline). Sham and control groups received JPH203 vehicle (40% 2-hydroxipropil-beta-cyclodextrin in saline). Mice were euthanized 2 or 5 weeks after surgery.
Total RNA was extracted from heart samples using the NZY Total RNA Isolation kit (Cat. No. MB13402, NZY Tech) following the manufacturer's protocol.
RNA was reverse transcribed into cDNA using a High-Capacity cDNA Reverse Transcription kit (Cat. No. 4368814, Applied Biosystems) following manufacturer's instructions. The thermal cycler (Bio-Rad) was programmed to run a single cycle of 25 °C for 10 min, 37 °C for 120 min, 85 °C for 5 min and kept at 4 °C until use.
For determination of differential gene expression, RNA was isolated, as previously described, from mice myocardial samples and its quality was analysed by capillary electrophoresis (Bioanalyzer 2100, Agilent) and amplified using the WT Plus Reagent Kit-HT (Applied Biosystems, Thermo Fisher Scientific). Microarray service was done by the Molecular Diagnosis and Genomic platforms of the High Technology Unit (VHIR) using Clariom S type arrays specific for mouse transcriptome (plate format) (Applied Biosystems). […]

[2] = tested on: myocardial BCAA content; assay: LC-MS/MS of BCAA and leucine metabolites in heart extracts of TAC mice
Method: as §1, §2, §3
After 5 hours of fasting, mice were injected with an intraperitoneal dose of L-Leucine-^13C6, ^15N (Cat. No. 608068, Sigma-Aldrich) at 0.1 mg/g 30 minutes before euthanizing with a lethal injection of sodium pentobarbital resuspended in saline and injected at 100 mg/kg (Cat. No. 4579, Tocris).
The levels of Branched-Chain Amino Acids (BCAA) and their main metabolites in biological samples will be determined by Liquid Chromatography tandem Mass Spectrometry (LC-MS/MS). Briefly, the determination of amino acids (BCAA but also amino acids involved in glutaminolysis) was performed by using a hydrophilic interaction chromatography (HILIC) with an amide column. After addition of the adequate internal standard (containing labelled analogues), protein precipitation with organic solvents and centrifugation, the supernatant was injected into the LC-MS/MS system operating in a Selected Reaction Monitoring (SRM) method by acquiring two transitions for each compound. The determination of α-ketoacids, α-hydroxy acids and SCFA (including the main BCAA metabolites and other compounds related with glutaminolysis) was performed by oBHA derivatization. The internal standard (containing labelled analogues) was added into the sample and the mixture was derivatized by adding a derivatizing mixture consisting in oBHA:EDC (1:1) in pyridine. After reaction for 1 h at room temperature, 1 mL of milliQ water and 4 mL of ethyl acetate was added to perform a liquid-liquid extraction. […] Quantification was performed by means of external calibration using authentic referent material. […] Several quality control samples (QCs) were analysed with every analytical batch with the aim of checking the inter-batch robustness of the results. […]

[3] = tested on: heart hypertrophy; assay: Cardiac hypertrophy in Transverse Aortic Constriction (TAC) mouse model; details: 12.5 mg/kg/day ip, vs control group
Method: as §1, §2, §3
(§4) Mice underwent transthoracic echocardiography at baseline (before surgery) and at 1, 2 and 5 weeks after surgery. Echocardiography was performed using a Prospect T1 Preclinical High Frequency Ultrasound System with a PB406e Probe 40MHz transducer (S-Sharp) applied to the shaved chest wall of mice anesthetized with isoflurane. The ejection fraction (EF), the left ventricular end-systolic (LVESd) and diastolic (LVEDd) internal diameters, left ventricular anterior wall (LVAW) thickness and left ventricular posterior wall (LVPW) thickness were measured in M-mode recordings.
Hypertrophy was calculated as heart weight-to-tibia length ratio. Echocardiographic parameters like IVS and LVPW thicknesses, as well as BNP and Myh7 mRNA levels, are the common parameters used to define myocardial hypertrophy.

[4] = tested on: interstitial collagen; assay: Cardiac fibrosis in Transverse Aortic Constriction (TAC) mouse model; details: 12.5 mg/kg/day ip
Method: as §1, §2, §3
Hearts were fixed in buffered 4% paraformaldehyde and embedded in paraffin for histological evaluation. The amount of interstitial collagen deposition was determined in 4 µm transverse sections at the papillary muscles level stained with Picrosirius red (Sigma-Aldrich). At least ten random photomicrographs per animal were taken with the Leica DM IRBE Inverted Fluorescence Microscope at x200 magnification. The analysis was performed using Image J 1.50 Software. Interstitial fibrosis was expressed as the percentage of fibrotic area with respect to total area under quantification, perivascular fibrosis was manually excluded from the analysis.

[5] = tested on: heart failure induced by aortic stenosis; assay: Ventricular dilatation, cardiac function (echocardiography) and pulmonary oedema in TAC mouse model; details: after 5 weeks of TAC surgery, 12.5 mg/kg/day ip, vs control group
Method: as §1, §2, §3, §4

[6] = 13C,15N-leucine ip 30 minutes before heart extraction, 2 weeks of TAC, 12.5 mg/kg/day ip

Nc1cc(COc2c(Cl)cc(C[C@H](N)C(=O)O)cc2Cl)c2oc(-c3ccccc3)nc2c1 [JPH203, O-[(5-amino-2-phenyl-1,3-benzoxazol-7-yl)methyl]-3,5-dichloro-L-tyrosine]
reduction in the expression of PP1MK ([1]; RT-PCR, hearts, vs control hearts, P=0.013): significantly attenuated | reduction in the expression of BCKDHB ([1]; RT-PCR, hearts, vs control hearts, P=0.015): significantly attenuated | downregulation of genes involved in BCAA catabolism induced by TAC surgery ([1]; microarray, myocardial samples, JPH203 treated vs sham mice): attenuates the downregulation | increase in the ratio between the plasma and myocardial content of 13C6,15N-leucine (leucine uptake) [2, 6]: prevented these alterations | reduction in the levels of the 13C6,15N-leucine metabolite 13C-HMG [2, 6]: prevented these alterations | reduction in the levels of the 13C6,15N-leucine metabolite 13C-isovaleric acid [2, 6]: prevented these alterations | increase in the myocardial content of BCAA (valine, leucine and isoleucine) ([2]; LC-MS/MS, heart extracts after 2 weeks of TAC surgery, chronic administration 12.5 mg/kg/day ip): significantly attenuated | attenuation of the increase in HW/TL ratio ([3]; 5 weeks of aortic stenosis, P<0.001): 33% | attenuation of the increase in MyH7/MyH6 ratio ([3]; RT-PCR, P<0.001): 44% | attenuation of the increase in BNP expression ([3]; RT-PCR, P=0.001): 65% | reduction of posterior wall thickness ([3]; echocardiography, diastole, P=0.006): 28% | reduction of anterior wall thickness ([3]; echocardiography, diastole, P=0.026): 30% | reduced interstitial collagen deposition ([4]; Picrosirius Red stained heart sections, P<0.001): 57% | attenuation in the expression of collagen III ([4]; RT-PCR, myocardial homogenates after two weeks of TAC surgery, P=0.002): 58% | attenuation in the expression of collagen I ([4]; RT-PCR, myocardial homogenates after two weeks of TAC surgery, P=0.003): 56% | attenuation of the development of pulmonary oedema (water content in lungs) ([5]; P<0.001): 56% | attenuation of cardiac dysfunction (reduction in ejection fraction) ([5]; P=0.030): 38% | reduction of the diastolic volume (LVEDV) ([5]; echocardiography, P=0.017): 60% | reduction of the systolic volume (LVESV) ([5]; echocardiography, P=0.021): 51%
